Data published in patent publication US12351576B2, “FGFR inhibitor, preparation method therefor and application thereof” (Abbisko Therapeutics Co., Ltd., priority 2018, dated 2025).
Where two headings read alike, the source gives them in different places.

How the values were obtained:
FGFR1 = FGFR1 (Homo sapiens (Human), UniProt P11362); test: In vitro biochemical kinase assay (Caliper Assay), FGFR1; conditions: enzyme 0.25 nM, ATP 382 μM, 20 minutes; read-out: Enzymatic activity IC50(nM) FGFR1
Sequence of FGFR1 (P11362 22-822): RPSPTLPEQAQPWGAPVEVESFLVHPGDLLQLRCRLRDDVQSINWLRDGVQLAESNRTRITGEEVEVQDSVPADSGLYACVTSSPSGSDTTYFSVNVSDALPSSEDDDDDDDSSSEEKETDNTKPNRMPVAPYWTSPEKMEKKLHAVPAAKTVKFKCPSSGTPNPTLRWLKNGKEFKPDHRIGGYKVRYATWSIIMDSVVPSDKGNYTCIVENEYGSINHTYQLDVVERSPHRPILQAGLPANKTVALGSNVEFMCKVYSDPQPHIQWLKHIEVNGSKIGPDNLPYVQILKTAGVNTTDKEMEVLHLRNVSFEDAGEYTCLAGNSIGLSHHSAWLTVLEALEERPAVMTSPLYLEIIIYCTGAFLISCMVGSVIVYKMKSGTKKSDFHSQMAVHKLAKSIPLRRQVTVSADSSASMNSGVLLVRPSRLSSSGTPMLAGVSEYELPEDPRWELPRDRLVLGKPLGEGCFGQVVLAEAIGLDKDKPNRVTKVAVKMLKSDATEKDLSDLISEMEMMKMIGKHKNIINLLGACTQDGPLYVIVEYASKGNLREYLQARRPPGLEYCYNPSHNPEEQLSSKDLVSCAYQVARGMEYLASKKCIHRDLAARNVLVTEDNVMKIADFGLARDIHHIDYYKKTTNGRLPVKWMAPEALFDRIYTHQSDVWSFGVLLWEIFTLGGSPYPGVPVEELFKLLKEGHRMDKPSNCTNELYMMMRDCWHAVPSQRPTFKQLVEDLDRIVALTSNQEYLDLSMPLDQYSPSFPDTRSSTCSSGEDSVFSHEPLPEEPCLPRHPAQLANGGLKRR
Protocol: (§1) I. In Vitro Biochemical Kinase Assay of FGFR 1˜3
(§2) Caliper Assay was used in the present invention to determine the inhibitory activities of the compounds against FGFR1, FGFR2, and FGFR3. The specific experimental procedure was as follows: • 1. The kinase reaction in the present invention was carried out in 384-well plates, the kinase(Carna) at a certain concentration and ATP at a certain concentration and 1 μM of peptide FAM-P22 (GL Biochem, Cat. No. 112393)) was incubated to react for a certain time at 28° C. in a reaction system consisting of 50 mM HEPES, […], 0.0015% Brij-35 and basic kinase buffer; for FGFR1, the enzyme concentration was 0.25 nM and ATP concentration was 382 μM and the reaction time was 20 minutes; for FGFR2, the enzyme concentration was 2.5 nM, ATP concentration was 1 μM, and the reaction time was 40 minutes; for FGFR3, the enzyme concentration was 8 nM, ATP concentration was 4.7 μM, and the reaction time was 30 minutes: • 2. The reaction was terminated with a stop solution (100 mM HEPES, pH 7.5, 0.2% Caliper coating, reagent, 50 mM EDTA and 0.015% Brij35); • 3. The plate with the terminated kinase reaction was transferred to the Caliper workstation to read the data; • 4. the phosphorylated and unphosphorylated peptides were separated by the Caliper microfluid migration shift technique, and the analyte was transferred by a constant buffer flow through the chip, the migration of the substrate peptide was monitored by the labeled fluorescent signal, and the kinase activity was calculated by the amount of the phosphate-based peptide formed. • 5. IC50 was determined by non-linear regression analysis of percent inhibition at different concentration level of the compound.

FGFR2 = FGFR2 (Homo sapiens (Human), UniProt P21802); test: In vitro biochemical kinase assay (Caliper Assay), FGFR2; conditions: enzyme 2.5 nM, ATP 1 μM, 40 minutes; read-out: Enzymatic activity IC50(nM) FGFR2
Sequence of FGFR2 (P21802 22-821): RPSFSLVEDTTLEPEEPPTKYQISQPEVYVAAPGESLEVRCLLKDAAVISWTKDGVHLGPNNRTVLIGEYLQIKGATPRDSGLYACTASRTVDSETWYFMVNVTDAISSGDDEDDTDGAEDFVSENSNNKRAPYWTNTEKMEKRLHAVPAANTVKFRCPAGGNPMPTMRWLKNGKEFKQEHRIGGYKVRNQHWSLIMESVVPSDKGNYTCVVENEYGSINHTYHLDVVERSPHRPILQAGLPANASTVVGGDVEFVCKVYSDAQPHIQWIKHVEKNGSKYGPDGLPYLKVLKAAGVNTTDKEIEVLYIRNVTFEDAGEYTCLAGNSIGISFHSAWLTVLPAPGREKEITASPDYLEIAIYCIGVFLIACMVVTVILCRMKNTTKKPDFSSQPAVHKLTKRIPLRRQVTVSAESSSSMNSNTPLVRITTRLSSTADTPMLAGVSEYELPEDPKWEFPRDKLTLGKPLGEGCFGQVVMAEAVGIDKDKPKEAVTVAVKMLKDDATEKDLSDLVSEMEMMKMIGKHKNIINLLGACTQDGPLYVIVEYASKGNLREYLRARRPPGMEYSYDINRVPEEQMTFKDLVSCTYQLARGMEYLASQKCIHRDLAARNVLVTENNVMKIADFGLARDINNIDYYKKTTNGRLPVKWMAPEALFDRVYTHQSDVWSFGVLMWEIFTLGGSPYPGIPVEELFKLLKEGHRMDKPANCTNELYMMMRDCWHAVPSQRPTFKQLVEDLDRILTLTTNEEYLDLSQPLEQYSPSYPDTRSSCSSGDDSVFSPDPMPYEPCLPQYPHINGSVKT
Protocol: as §1, §2

[1] = tested on: Snu-16 gastric cancer cells (FGFR2 gene amplification); test: Cell proliferation assay (Cell Titer Glo), Snu-16; type: cell-based; conditions: Snu-16 cells, 3 days, CTG, read-out: Cellular IC50 (nM) Sun16
Protocol: (§3) II. Cell Proliferation Assay (Cell Titer Glo(CTG) Assay)
(§4) The FGFR signal pathway dependent inhibitory effect of the compound in the present invention on cell proliferation was assessed by survival test using CTG reagent (Promega, 4G7573). Cell lines representative of a variety of tumor types, including H1581 lung cancer cells (FGFR1 gene amplification), Snu-16 gastric cancer cells (FGFR2 gene amplification), and RT112 bladder carcinoma cells (FGFR3-TACC3 fusion) from Nanjing Cobioer Biosciences, were selected for the assay. The specific experimental procedure was as follows: • 1. 90 μL of cells were seeded into a 96-well plate processed with TCM (Costar 43904), and incubated overnight at 37° C. in a 5% CO2 incubator; afterwards, 10 μL of the culture medium containing the compound at 10 fold of its final concentration was added; • 2. The dose-dependent effect was evaluated by a serial dilution of the test compound, starting from 10 μM or a lower concentration. • 3. The cells were incubated at 37° C. under 5% C02 for 3 days, then added 50 μL CTG, and read the data with Envision (Pelkin Elmer) to quantify the ATP level in the cells. The ATP levels in cells with treatment of inhibitor at a variety of concentrations were compared with those in cells of the control group (in which DMSO was added into the medium) to evaluate the compound percent inhibition of cell proliferation/survival. • 4. The compound half growth inhibitory concentration (IC50) was determined in Graphpad Prism by 4-parameter curve fitting.

[2] = tested on: H1581 lung cancer cells (FGFR1 gene amplification); test: Cell proliferation assay (Cell Titer Glo), H1581; type: cell-based; conditions: 3 days, CTG, read-out: Cellular IC50 (nM) H1581
Protocol: as §3, §4

SMILES: CCn1c(=O)c(-c2c(Cl)c(OC)cc(OC)c2Cl)cc2cnc(-c3cn(C4CCN(C)C4)nc3C)cc21 (centres unmarked) [Example 46, 3-(2,6-dichloro-3,5-dimethoxyphenyl)-1-ethyl-7-(3-methyl-1-(1-methylpyrrolidin-3-yl)-1H-pyrazol-4-yl)-1,6-naphthyridin-2(1H)-one]
- IC50 (FGFR1): 10 to 50 nM
- IC50 (FGFR2): ≤ 5 nM
- IC50 ([1]; Homo sapiens, SNU-16, 72 h): 10 to 50 nM
- IC50 ([2]; Homo sapiens, NCI-H1581, 72 h): 50 to 500 nM

SMILES: COc1cc(OC)c(F)c(-c2cc3cnc(-c4cnn(CCN5CCOCC5)c4)cc3n(C(C)C)c2=O)c1F [Example 30, 3-(2,6-difluoro-3,5-dimethoxyphenyl)-1-isopropyl-7-(1-(2-morpholinoethyl)-1H-pyrazol-4-yl)-1,6-naphthyridin-2(1H)-one]
- IC50 (FGFR1): ≤ 5 nM
- IC50 (FGFR2): ≤ 5 nM
- IC50 ([1]; Homo sapiens, SNU-16, 72 h): ≤ 5 nM
- IC50 ([2]; Homo sapiens, NCI-H1581, 72 h): 10 to 50 nM

SMILES: CCn1c(=O)c(-c2c(Cl)c(OC)cc(OC)c2Cl)cc2cnc(-c3cn(C)nc3C)cc21 [Example 9, 3-(2,6-dichloro-3,5-dimethoxyphenyl)-7-(1,3-dimethyl-1H-pyrazol-4-yl)-1-ethyl-1,6-naphthyridin-2(1H)-one]
- IC50 (FGFR1): 10 to 50 nM
- IC50 (FGFR2): ≤ 5 nM

SMILES: CCn1c(=O)c(-c2c(F)c(OC)cc(OC)c2F)cc2cnc(-c3cnn(C)c3)cc21 [Example 25, 3-(2,6-difluoro-3,5-dimethoxyphenyl)-1-ethyl-7-(1-methyl-1H-pyrazol-4-yl)-1,6-naphthyridin-2(1H)-one]
- IC50 (FGFR1): ≤ 5 nM
- IC50 (FGFR2): ≤ 5 nM
- IC50 ([1]; Homo sapiens, SNU-16, 72 h): 50 to 500 nM
- IC50 ([2]; Homo sapiens, NCI-H1581, 72 h): 50 to 500 nM

SMILES: COc1cc(OC)c(Cl)c(-c2cc3cnc(-c4cnn(C)c4)cc3n([C@H]3CCOC3)c2=O)c1Cl [Example 22, (S)-3-(2,6-dichloro-3,5-dimethoxyphenyl)-7-(1-methyl-1H-pyrazol-4-yl)-1-(tetrahydrofuran-3-yl)-1,6-naphthyridin-2(1H)-one]
- IC50 (FGFR1): ≤ 5 nM
- IC50 (FGFR2): ≤ 5 nM
- IC50 [1]: ≤ 5 nM
- IC50 [2]: 10 to 50 nM

SMILES: COc1cc(OC)c(F)c(-c2cc3cnc(-c4ccc(C(C)(C)C#N)nc4)cc3n(C3CCOC3)c2=O)c1F (centres unmarked) [Example 40, 2-(5-(3-(2,6-difluoro-3,5-dimethoxyphenyl)-2-oxo-1-(tetrahydrofuran-3-yl)-1,2-dihydro-1,6-naphthyridin-7-yl)pyridin-2-yl)-2-methylpropanenitrile]
- IC50 (FGFR1): 5 to 10 nM
- IC50 (FGFR2): ≤ 5 nM
- IC50 ([1]; Homo sapiens, SNU-16, 72 h): 5 to 10 nM
- IC50 ([2]; Homo sapiens, NCI-H1581, 72 h): 50 to 500 nM

SMILES: COc1cc(OC)c(Cl)c(-c2cc3cnc(-c4cnn(C)c4)cc3n(C3CCOC3)c2=O)c1Cl (centres unmarked) [Example 7, 3-(2,6-dichloro-3,5-dimethoxyphenyl)-7-(1-methyl-1H-pyrazol-4-yl)-1-(tetrahydrofuran-3-yl)-1,6-naphthyridin-2(1H)-one]
- IC50 (FGFR1): ≤ 5 nM
- IC50 (FGFR2): ≤ 5 nM
- IC50 ([1]; Homo sapiens, SNU-16, 72 h): 5 to 10 nM
- IC50 ([2]; Homo sapiens, NCI-H1581, 72 h): 10 to 50 nM

SMILES: CCn1c(=O)c(-c2c(Cl)c(OC)cc(OC)c2Cl)cc2cnc(-c3cnn(CCN4CCOCC4)c3C)cc21 [Example 49, 3-(2,6-dichloro-3,5-dimethoxyphenyl)-1-ethyl-7-(5-methyl-1-(2-morpholinoethyl)-1H-pyrazol-4-yl)-1,6-naphthyridin-2(1H)-one]
- IC50 ([1]; Homo sapiens, SNU-16, 72 h): 50 to 500 nM
- IC50 ([2]; Homo sapiens, NCI-H1581, 72 h): 50 to 500 nM

SMILES: CCn1c(=O)c(-c2c(Cl)c(OC)cc(OC)c2Cl)cc2cnc(-c3ccc(C4(C#N)CCC4)nc3)cc21 [Example 12, 1-(5-(3-(2,6-dichloro-3,5-dimethoxyphenyl)-1-ethyl-2-oxo-1,2-dihydro-1,6-naphthyridin-7-yl)pyridin-2-yl)cyclobutane-1-carbonitrile]
- IC50 ([1]; Homo sapiens, SNU-16, 72 h): 50 to 500 nM
- IC50 ([2]; Homo sapiens, NCI-H1581, 72 h): > 500 nM

SMILES: COc1cc(OC)c(F)c(-c2cc3cnc(-c4ccc(N5CC6CC5CO6)nc4)cc3n(C3CCOC3)c2=O)c1F (centres unmarked) [Example 38, 7-(6-(2-oxa-5-azabicyclo[2.2.1]heptan-5-yl)pyridin-3-yl)-3-(2,6-difluoro-3,5-dimethoxyphenyl)-1-(tetrahydrofuran-3-yl)-1,6-naphthyridin-2(1H)-one]
- IC50 ([1]; Homo sapiens, SNU-16, 72 h): ≤ 5 nM
- IC50 ([2]; Homo sapiens, NCI-H1581, 72 h): 10 to 50 nM

SMILES: COc1cc(OC)c(Cl)c(-c2cc3cnc(-c4cnn(CCN(C)C)c4)cc3n(C3CCOC3)c2=O)c1Cl (centres unmarked) [Example 48, 3-(2,6-dichloro-3,5-dimethoxyphenyl)-7-(1-(2-(dimethylamino)ethyl)-1H-pyrazol-4-yl)-1-(tetrahydrofuran-3-yl)-1,6-naphthyridin-2(1H)-one]
- IC50 (FGFR1): 10 to 50 nM
- IC50 (FGFR2): ≤ 5 nM
- IC50 ([1]; Homo sapiens, SNU-16, 72 h): 5 to 10 nM
- IC50 ([2]; Homo sapiens, NCI-H1581, 72 h): 50 to 500 nM

SMILES: CCn1c(=O)c(-c2c(Cl)c(OC)cc(OC)c2Cl)cc2cnc(-c3cnn(CC#N)c3C)cc21 [Example 50, 2-(4-(3-(2,6-dichloro-3,5-dimethoxyphenyl)-1-ethyl-2-oxo-1,2-dihydro-1,6-naphthyridin-7-yl)-5-methyl-1H-pyrazol-1-yl)acetonitrile]
- IC50 ([1]; Homo sapiens, SNU-16, 72 h): > 500 nM
- IC50 ([2]; Homo sapiens, NCI-H1581, 72 h): > 500 nM

SMILES: COc1cc(OC)c(Cl)c(-c2cc3cnc(-c4cnn(C)c4)cc3n(CCN3CCOCC3)c2=O)c1Cl [Example 5, 3-(2,6-dichloro-3,5-dimethoxyphenyl)-7-(1-methyl-1H-pyrazol-4-yl)-1-(2-morpholinoethyl)-1,6-naphthyridin-2(1H)-one]
- IC50 (FGFR1): 50 to 500 nM
- IC50 (FGFR2): 10 to 50 nM
- IC50 ([1]; Homo sapiens, SNU-16, 72 h): 10 to 50 nM
- IC50 ([2]; Homo sapiens, NCI-H1581, 72 h): 50 to 500 nM

SMILES: COc1cc(OC)c(Cl)c(-c2cc3cnc(-c4cnn(C)c4)cc3n(C(C)C)c2=O)c1Cl [Example 3, 3-(2,6-dichloro-3,5-dimethoxyphenyl)-1-isopropyl-7-(1-methyl-1H-pyrazol-4-yl)-1,6-naphthyridin-2(1H)-one]
- IC50 (FGFR1): 5 to 10 nM
- IC50 (FGFR2): ≤ 5 nM

SMILES: CCn1c(=O)c(-c2c(Cl)c(OC)cc(OC)c2Cl)cc2cnc(-c3cnn(C)c3)cc21 [Example 1, 3-(2,6-dichloro-3,5-dimethoxyphenyl)-1-ethyl-7-(1-methyl-1H-pyrazol-4-yl)-1,6-naphthyridin-2(1H)-one]
- IC50 (FGFR1): 10 to 50 nM
- IC50 (FGFR2): ≤ 5 nM

SMILES: COc1cc(OC)c(Cl)c(-c2cc3cnc(-c4cnn(C)c4)cc3n(C3CCOC3)c2=O)c1 (centres unmarked) [Example 24, 3-(2-chloro-3,5-dimethoxyphenyl)-7-(1-methyl-1H-pyrazol-4-yl)-1-(tetrahydrofuran-3-yl)-1,6-naphthyridin-2(1H)-one]
- IC50 ([1]; Homo sapiens, SNU-16, 72 h): 10 to 50 nM
- IC50 ([2]; Homo sapiens, NCI-H1581, 72 h): 50 to 500 nM

SMILES: CCn1c(=O)c(-c2c(Cl)c(OC)cc(OC)c2Cl)cc2cnc(-c3cn(CCN(C)C)nc3C)cc21 [Example 45, 3-(2,6-dichloro-3,5-dimethoxyphenyl)-7-(1-(2-(dimethylamino)ethyl)-3-methyl-1H-pyrazol-4-yl)-1-ethyl-1,6-naphthyridin-2(1H)-one]
- IC50 ([1]; Homo sapiens, SNU-16, 72 h): 10 to 50 nM
- IC50 ([2]; Homo sapiens, NCI-H1581, 72 h): 50 to 500 nM

SMILES: COc1cc(OC)c(Cl)c(-c2cc3cnc(-c4ccc(C5(C#N)CCC5)nc4)cc3n(C)c2=O)c1Cl [Example 20, 1-(5-(3-(2,6-dichloro-3,5-dimethoxyphenyl)-1-methyl-2-oxo-1,2-dihydro-1,6-naphthyridin-7-yl)pyridin-2-yl)cyclobutane-1-carbonitrile]
- IC50 ([1]; Homo sapiens, SNU-16, 72 h): 50 to 500 nM
- IC50 ([2]; Homo sapiens, NCI-H1581, 72 h): > 500 nM

SMILES: CCn1c(=O)c(-c2cc(OC)cc(OC)c2Cl)cc2cnc(-c3cnn(C)c3)cc21 [Example 13, 3-(2-chloro-3,5-dimethoxyphenyl)-1-ethyl-7-(1-methyl-1H-pyrazol-4-yl)-1,6-naphthyridin-2(1H)-one]
- IC50 (FGFR1): 50 to 500 nM
- IC50 (FGFR2): 5 to 10 nM

SMILES: COc1cc(OC)c(F)c(-c2cc3cnc(-c4cnn(C)c4)cc3n(C(C)C)c2=O)c1F [Example 26, 3-(2,6-difluoro-3,5-dimethoxyphenyl)-1-isopropyl-7-(1-methyl-1H-pyrazol-4-yl)-1,6-naphthyridin-2(1H)-one]
- IC50 ([1]; Homo sapiens, SNU-16, 72 h): 10 to 50 nM
- IC50 ([2]; Homo sapiens, NCI-H1581, 72 h): 10 to 50 nM
